In PubChem BioAssay (NCI):
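Five concentrations, 48 hours, 96-well plates. GI50: concentration for 50% inhibition of growth. TGI is the concentration that stops growth completely.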

Key:
Assay in all cases: inhibition of tumour cell growth, NCI panel, 48 h
UACC-257 melanoma = test system: UACC-257 melanoma
PC-3 prostate = test system: PC-3 prostate
HCC-2998 colon = test system: HCC-2998 colon
A498 renal = test system: A498 renal
SNB-75 CNS = test system: SNB-75 CNS
DU-145 prostate = test system: DU-145 prostate
T-47D breast = test system: T-47D breast
HCT-116 colon = test system: HCT-116 colon
RPMI-8226 leukemia = test system: RPMI-8226 leukemia
SK-MEL-5 melanoma = test system: SK-MEL-5 melanoma
A549 NSCLC = test system: A549 NSCLC
SK-MEL-28 melanoma = test system: SK-MEL-28 melanoma
MOLT-4 leukemia = test system: MOLT-4 leukemia
CAKI-1 renal = test system: CAKI-1 renal
NCI-H226 lung = test system: NCI-H226 lung
MCF7 breast = test system: MCF7 breast
HT29 colon = test system: HT29 colon
M14 melanoma = test system: M14 melanoma
COLO 205 colon = test system: COLO 205 colon
SK-OV-3 ovarian = test system: SK-OV-3 ovarian
IGROV1 ovarian = test system: IGROV1 ovarian
SNB-19 CNS = test system: SNB-19 CNS
MDA-MB-435 = test system: MDA-MB-435
HOP-62 NSCLC = test system: HOP-62 NSCLC
SF-539 CNS = test system: SF-539 CNS
BT-549 breast = test system: BT-549 breast
RXF 393 renal = test system: RXF 393 renal

## COc1cc(-c2cc(-c3nc4ccc(F)cc4[nH]3)[nH]n2)cc(OC)c1OC
UACC-257 melanoma
  GI50: 2.15 µM
  TGI: 5.9 µM
PC-3 prostate
  GI50: 1.63 µM
  TGI: 5.84 µM
HCC-2998 colon
  GI50: 5.96 µM
  TGI: 18.7 µM
A498 renal
  GI50: 1.86 µM
  TGI: 11.9 µM
SNB-75 CNS
  GI50: 1.76 µM
  TGI: 5.54 µM
DU-145 prostate
  GI50: 3.17 µM
  TGI: 13 µM
T-47D breast
  GI50: 0.764 µM
  TGI: 3.09 µM
HCT-116 colon
  GI50: 2.81 µM
  TGI: 10.4 µM
RPMI-8226 leukemia
  GI50: 1.24 µM
  TGI: 3.26 µM
SK-MEL-5 melanoma
  GI50: 1.39 µM
  TGI: 2.8 µM
A549 NSCLC
  GI50: 2.46 µM
  TGI: 8.81 µM
SK-MEL-28 melanoma
  GI50: 2.39 µM
  TGI: 6.52 µM
MOLT-4 leukemia
  GI50: 2.1 µM
  TGI: 4.82 µM
CAKI-1 renal
  GI50: 1.8 µM
  TGI: 6.84 µM
NCI-H226 lung
  GI50: 1.28 µM
  TGI: 4.31 µM
MCF7 breast
  GI50: 2.11 µM
  TGI: 6.37 µM
HT29 colon
  GI50: 4.4 µM
  TGI: 28.3 µM
M14 melanoma
  GI50: 2.36 µM
  TGI: 7.62 µM
COLO 205 colon
  GI50: 3.26 µM
  TGI: 10.3 µM
SK-OV-3 ovarian
  GI50: 3.32 µM
  TGI: 9.59 µM
IGROV1 ovarian
  GI50: 2.27 µM
  TGI: 10.7 µM
SNB-19 CNS
  GI50: 5.47 µM
  TGI: 18.8 µM
MDA-MB-435
  GI50: 2.12 µM
  TGI: 5.44 µM
HOP-62 NSCLC
  GI50: 2.37 µM
  TGI: 8.05 µM
SF-539 CNS
  GI50: 3.58 µM
  TGI: 14.4 µM
BT-549 breast
  GI50: 1.84 µM
  TGI: 6.28 µM
RXF 393 renal
  GI50: 1.85 µM
  TGI: 9.36 µM
